From the SangsterLogP compilation

Key:
[1] = method code SF-HPLC, from DOI: 10.1021/js990112s, PMID: 10585226

Row | Compound | logP | logP [1]
1 | Brc1ccc(-c2nccnc2-c2ccc(Br)cc2)cc1 | 3.41 | 
2 | Cc1c[n+]([O-])c(C)c(Cl)n1 | 0.44 | 
3 | COc1ccc(-c2ncc(OC)nc2-c2ccc(OC)cc2)cc1 | 4.47 | 
4 | COc1ccc(-c2cnccn2)cc1 |  | 2.24
5 | COC(=O)c1cnc(-c2ccc(OC)cc2)c(-c2ccc(OC)cc2)n1 | 3.41 | 
6 | CCOc1cnc(-c2ccc(OC)cc2)c(-c2ccc(OC)cc2)n1 | 4.22 | 
7 | Cc1nc(Cl)c(C)nc1Cl | 2.4 | 
8 | Fc1ccc(-c2nccnc2-c2ccc(F)cc2)cc1 | 3.75 | 
9 | Cc1ncc(C)[n+]([O-])c1Cl | 0.19 | 
10 | N#Cc1ccc(-c2nccnc2-c2ccc(C#N)cc2)cc1 | 2.52 | 
11 | COc1ccc(-c2nc(C)c(C)nc2-c2ccc(OC)cc2)cc1 | 4.1 | 
12 | Cc1nc(Cl)c(C)[n+]([O-])c1Cl | 1.08 | 
13 | COc1ccc(-c2nccnc2-c2ccc(OC)cc2)cc1 | 3.42 | 
14 | [O-][n+]1cc(Cl)nc(-c2ccc(Cl)cc2)c1-c1ccc(Cl)cc1 | 3.66 | 

Second part, the compound after the results:

Row | logP | logP [1] | Compound
15 | 4.05 |  | Clc1cnc(-c2ccccc2)c(-c2ccccc2)n1
16 | 4.71 |  | CC(C)c1cnc(-c2ccccc2)c(-c2ccccc2)n1
17 | 3.19 |  | c1ccc(-c2nccnc2-c2ccccc2)cc1
18 |  | 2.07 | c1ccc(-c2cnccn2)cc1
19 | 4.28 |  | Cc1nc(-c2ccccc2)cnc1-c1ccccc1
20 | 3.52 |  | Cc1cnc(-c2ccccc2)c(-c2ccccc2)n1
21 | 3.66 |  | COc1ccc(-c2ncc(C)nc2-c2ccc(OC)cc2)cc1
22 | 4.73 |  | CCOc1cnc(-c2ccccc2)c(-c2ccccc2)n1
23 | 4.1 |  | Cc1ccc(-c2nccnc2-c2ccc(C)cc2)cc1
24 | 3.7 |  | COc1ccc(-c2ncc(C#N)nc2-c2ccc(OC)cc2)cc1
25 | 4.21 |  | COc1cnc(-c2ccccc2)c(-c2ccccc2)n1
26 | 4.83 |  | Cc1nc(C)c(-c2ccccc2)nc1-c1ccccc1
27 | 4.94 |  | CCc1nc(-c2ccccc2)cnc1-c1ccccc1
28 | 5.2 |  | COc1ccccc1Cc1cnc(-c2ccccc2)c(-c2ccccc2)n1
29 | 4.3 |  | COc1ccc(-c2ncc(Cl)nc2-c2ccc(OC)cc2)cc1
